Experimental data published in PMC9502896 (Nutrients, 2022).
“And” between values parts separate entries of the source, which are not always exact repeats. Identical values can stand only once. Like-named read-outs stand apart in the source and are kept apart here. Each block holds one compound with its values, some of them ahead of it.

Assays:
[1] = system: β-secretase; parameters: method as in PMID 29597336; conditions: cited from earlier work
[2] = target: T1, hMAO-A (Homo sapiens, UniProt P21397); assay: In vitro hMAO inhibitory assay (luminometric), MAO-A; assay type: biochemical
T1 construct: purchased Sigma-Aldrich
T1 sequence (P21397 1-527): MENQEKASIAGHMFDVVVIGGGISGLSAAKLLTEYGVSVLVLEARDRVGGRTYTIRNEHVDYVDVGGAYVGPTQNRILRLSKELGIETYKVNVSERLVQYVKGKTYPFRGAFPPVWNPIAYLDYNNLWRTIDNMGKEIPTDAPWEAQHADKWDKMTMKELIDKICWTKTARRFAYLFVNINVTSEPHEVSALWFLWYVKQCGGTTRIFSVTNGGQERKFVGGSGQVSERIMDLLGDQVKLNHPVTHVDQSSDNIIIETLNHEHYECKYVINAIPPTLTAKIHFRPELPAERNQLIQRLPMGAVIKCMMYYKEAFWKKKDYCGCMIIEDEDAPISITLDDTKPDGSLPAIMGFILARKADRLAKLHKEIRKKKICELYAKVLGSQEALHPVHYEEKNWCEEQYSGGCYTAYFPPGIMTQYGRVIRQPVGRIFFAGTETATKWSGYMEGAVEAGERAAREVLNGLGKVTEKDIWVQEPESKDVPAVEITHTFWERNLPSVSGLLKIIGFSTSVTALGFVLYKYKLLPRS
Protocol: (§1) The inhibitory potential of the P. lobata-derived phytochemicals against MAO was evaluated through the luminometric method. Various doses of phytoestrogens in 0.1 M HEPES buffer (pH 7.5) with 5% 1,2,3-propanetriol for MAO-A and 5% 1,2,3-propanetriol and 10% dimethyl sulfoxide for MAO-B were mixed with the substrate (160 µM for MAO-A and 16 µM for MAO-B) and 0.5 µg of the enzyme and incubated at 25 °C. After 1 h incubation, reconstituted luciferin-detection reagent was added to the reaction mixture and incubated at 25 °C for 20 min. After that, luminescent signals were monitored using a microplate reader (Biotek, Winooski, VT, USA).
(§2) In addition, since factors such as organic solvents, metal ions (such as Cu^2+, Cd^2+, and Al^3+), pH, and temperature affect MAO activity, the assay was conducted in a well-controlled laboratory environment. The optimal conditions for the enzymatic reaction, including reaction time, temperature, pH, and the concentrations of the enzyme and substrate, were established based on the previous study. All the test samples were diluted in a reaction buffer containing 10% or less DMSO, and the solvent-control group was tested together for each assay to minimize false-positive/false-negative effects.

[3] = target: T2, hMAO-B (Homo sapiens, UniProt P27338); assay: In vitro hMAO inhibitory assay (luminometric), MAO-B; assay type: biochemical; conditions: 16 µM substrate, 0.5 µg enzyme, 25 °C, 1 h; read-out: hMAO-B IC50 (Mean ± SD)
T2 construct: purchased Sigma-Aldrich
T2 sequence (P27338 1-520): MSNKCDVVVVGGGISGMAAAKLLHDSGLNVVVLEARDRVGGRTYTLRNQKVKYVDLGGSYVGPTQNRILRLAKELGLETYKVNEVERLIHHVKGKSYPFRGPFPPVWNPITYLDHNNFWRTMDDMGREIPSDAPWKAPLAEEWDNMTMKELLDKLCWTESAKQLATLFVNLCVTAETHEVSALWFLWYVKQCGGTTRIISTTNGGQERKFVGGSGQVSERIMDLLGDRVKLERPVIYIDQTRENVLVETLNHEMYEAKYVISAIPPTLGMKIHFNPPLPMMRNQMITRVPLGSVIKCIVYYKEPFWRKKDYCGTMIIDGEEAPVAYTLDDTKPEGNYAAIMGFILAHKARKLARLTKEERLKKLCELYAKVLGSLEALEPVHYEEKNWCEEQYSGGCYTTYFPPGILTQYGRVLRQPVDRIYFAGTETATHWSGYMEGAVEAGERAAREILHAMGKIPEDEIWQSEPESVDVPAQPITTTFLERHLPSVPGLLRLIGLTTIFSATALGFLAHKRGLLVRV
Protocol: as §1, §2

[4] = system: mouse astrocytes; parameters: method as in PMID 21708076; conditions: nanomolar concentration; Aβ-induced cytotoxicity and inflammatory cytokine levels; cited from earlier work
[5] = target: T3, Aβ25–35 (Homo sapiens, UniProt P05067); assay: Self Aβ25–35 aggregation assay (thioflavin-T fluorescence); assay type: biochemical; conditions: for decrease of Aβ25–35 self-aggregation compared to control: 100 μM compound, 24 h of incubation
T3 construct: amyloid β peptide 25–35 (Aβ25–35); purchased Sigma-Aldrich
Protocol: The Aβ25–35 self-aggregation assay was performed following the method described by Naldi et al.. First, peptide was pretreated with HFIP for 1 day at 22 °C to obtain non-amyloidogenic conformation. […] After incubation, the reaction mixture was supplemented with 0.025 mM thioflavin-T in 50 mM glycine–NaOH buffer (pH 8.5). The fluorescence emission was monitored at 490 nm with excitation at 446 nm using the Gemini XPS (Molecular Devices, Sunnyvale, CA, USA).

[6] = target: T1, hMAO-A; assay: Kinetic assay for hMAO-A (Lineweaver-Burk and secondary plots); assay type: biochemical
Protocol: The experimental method was the same as that used for the hMAO inhibitory assay; 0.5 µg of enzyme, 40–160 µM substrate and 0, 2.5, 10, and 20 µM coumestrol were used. A Lineweaver–Burk plot (LB plot) was generated using SigmaPlot 12.0 based on the results of the kinetic assay and secondary plots of the LB plot (LB-2nd plot) were generated using the exploratory EK macro module (Table S1).
The equation for the LB plot is as follows:(1) […]

[7] = system: MAO-B; conditions: cited from earlier work
[8] = system: MAO-A; conditions: cited from earlier work
[9] = 160 µM substrate, 0.5 µg enzyme, 25 °C, 1 h, read-out: hMAO-A IC50 (Mean ± SD)
[10] = Screening active compound, 100 μM
[11] = substrate 40 μM, coumestrol 2.5 μM
[12] = substrate 40 μM, coumestrol 10 μM
[13] = substrate 40 μM, coumestrol 20 μM
[14] = substrate 80 μM, coumestrol 2.5 μM
[15] = substrate 80 μM, coumestrol 10 μM
[16] = substrate 80 μM, coumestrol 20 μM
[17] = substrate 160 μM, coumestrol 2.5 μM
[18] = substrate 160 μM, coumestrol 10 μM
[19] = substrate 160 μM, coumestrol 20 μM

Compound: O=c1oc2cc(O)ccc2c2oc3cc(O)ccc3c12 [Coumestrol]
in vitro inhibitory effect against β-secretase [1]: in vitro inhibitory effect
IC50 [2, 9]: 1.99 ± 0.68 µM
IC50 [3]: 77.8 ± 2.1 µM
neuroprotective effects in mouse astrocytes [4]: neuroprotective effects
decrease of Aβ25–35 self-aggregation compared to control [5]: 76.14%
Fluorescence (Emission = 490 nm / Excitation = 446 nm), replicates 1-3 ([5]; Dose-dependent curves, 5 μM): 874.9012 and 872.4322 and 899.9266
Fluorescence (Emission = 490 nm / Excitation = 446 nm), replicates 1-3 ([5]; Dose-dependent curves, 10 μM): 820.955 and 835.446 and 846.767
Fluorescence (Emission = 490 nm / Excitation = 446 nm), replicates 1-3 ([5]; Dose-dependent curves, 20 μM): 725.8814 and 709.3678 and 704.8239
Fluorescence (Emission = 490 nm / Excitation = 446 nm), replicates 1-3 ([5]; Dose-dependent curves, 50 μM): 578.864 and 549.001 and 576.214
Fluorescence (Emission = 490 nm / Excitation = 446 nm), replicates 1-3 ([5]; Dose-dependent curves, 100 μM): 484.285 and 460.697 and 486.519
Fluorescence (Emission = 490 nm / Excitation = 446 nm), replicates 1-3 [5, 10]: 420.995 and 408.908 and 418.89
IC50 ([5]; thioflavin-T assay, read-out: IC50 for inhibition of Aβ25–35 self-aggregation): 37.4 ± 1.7 µM
Inhibition Mode ([6]; 0.5 µg MAO-A, 40–160 µM substrate, 25 °C): Competitive
Inhibition Mode ([6]; 0.5 µg MAO-A, 40–160 µM substrate, 25 °C, listed as coumestrol): competitive inhibitor
Ki ([6]; 0.5 µg MAO-A, 40–160 µM substrate, 25 °C, secondary plots, read-out: Inhibition Constant (Ki)): 1.32 µM
1/V Mean [6, 11]: 0.000734 1/(RLU/60min)
RLU Mean [6, 11]: 81783.67 RLU
1/V Mean [6, 12]: 0.001642 1/(RLU/60min)
RLU Mean [6, 12]: 36716 RLU
1/V Mean [6, 13]: 0.002945 1/(RLU/60min)
RLU Mean [6, 13]: 20374 RLU
1/V Mean [6, 14]: 0.000475 1/(RLU/60min)
RLU Mean [6, 14]: 126374 RLU
1/V Mean [6, 15]: 0.000938 1/(RLU/60min)
RLU Mean [6, 15]: 64010.67 RLU
1/V Mean [6, 16]: 0.001597 1/(RLU/60min)
RLU Mean [6, 16]: 37649 RLU
1/V Mean [6, 17]: 0.000261 1/(RLU/60min)
RLU Mean [6, 17]: 229959.3 RLU
1/V Mean [6, 18]: 0.000495 1/(RLU/60min)
RLU Mean [6, 18]: 121308.7 RLU
1/V Mean [6, 19]: 0.000797 1/(RLU/60min)
RLU Mean [6, 19]: 75572 RLU

Compound: COc1cc(/C=C/C(=O)CC(=O)/C=C/c2ccc(O)c(OC)c2)ccc1O [Curcumin, curcumin, reference compound]
Fluorescence (Emission = 490 nm / Excitation = 446 nm), replicates 1-3 ([5]; Dose-dependent curves, 5 μM): 714.733 and 699.957 and 732.987
Fluorescence (Emission = 490 nm / Excitation = 446 nm), replicates 1-3 ([5]; Dose-dependent curves, 10 μM): 659.3354 and 647.8281 and 645.7345
Fluorescence (Emission = 490 nm / Excitation = 446 nm), replicates 1-3 ([5]; Dose-dependent curves, 20 μM): 508.323 and 494.704 and 529.05
Fluorescence (Emission = 490 nm / Excitation = 446 nm), replicates 1-3 ([5]; Screening active compound, 20 μM): 446.557 and 456.907 and 436.435

Compound: O=c1c(-c2ccc(O)cc2)coc2cc(O[C@@H]3O[C@H](CO)[C@@H](O)[C@H](O)[C@H]3O)ccc12 [Daidzin]
IC50 [2]: > 400 µM
IC50 [3]: > 400 µM

Compound: CC1OC(OCC2OC(Oc3c(-c4ccc(O)c(O)c4)oc4cc(O)cc(O)c4c3=O)C(O)C(O)C2O)C(O)C(O)C1O (centres unmarked) [Quercetin-3-O-robinobioside]
IC50 [2]: > 400 µM
IC50 [3]: > 400 µM

Compound: C[C@@H]1O[C@@H](OC[C@H]2O[C@@H](Oc3c(-c4ccc(O)c(O)c4)oc4cc(O)cc(O)c4c3=O)[C@H](O)[C@@H](O)[C@@H]2O)[C@H](O)[C@H](O)[C@H]1O [Rutin]
IC50 [2]: 387 ± 4.63 µM
inhibitory activity against MAO-A [2]: weak MAO-A inhibitory activity
IC50 [3]: > 400 µM
decrease of Aβ25–35 self-aggregation compared to control [5]: 49.31%
Fluorescence (Emission = 490 nm / Excitation = 446 nm), replicates 1-3 [5, 10]: 556.703 and 574.097 and 523.388

Compound: COc1c(CC=C(C)C)c(O)cc2oc(=O)c3c4ccc(O)cc4oc3c12 [glycyrol]
IC50 ([7]; read-out: IC50 against MAO-B): 29.5 µM
IC50 ([8]; read-out: activity against MAO-A (no activity below)): > 40 µM

Compound: CC(C)=CCc1cc2c(cc1O)oc(=O)c1c3ccc(O)cc3oc21 [psoralidin]
inhibitory effect against MAO-B [7]: did not show a significant inhibitory effect
inhibitory effect against MAO-A [8]: did not show a significant inhibitory effect

The remaining lines, values ahead:

decrease of Aβ25–35 self-aggregation compared to control [5]: 35.54%
Fluorescence (Emission = 490 nm / Excitation = 446 nm), replicates 1-3 [5, 10]: 752.714 and 744.841 and 739.542
Compound: O=c1c(-c2ccc(O)cc2)coc2cc(O)ccc12 [Daidzein]

decrease of Aβ25–35 self-aggregation compared to control [5]: 34.90%
Fluorescence (Emission = 490 nm / Excitation = 446 nm), replicates 1-3 [5, 10]: 656.961 and 678.75 and 636.556
Compound: O=c1c(-c2ccc(O)cc2)coc2cc(O)cc(O)c12 [Genistein]

IC50 [2, 9]: > 400 µM
IC50 [3]: > 400 µM
Compound: O=c1c(-c2ccc(O)cc2)coc2cc(O[C@@H]3O[C@H](CO)[C@@H](O)[C@H](O)[C@H]3O)cc(O)c12 [Genistin]

IC50 [2, 9]: > 400 µM
IC50 [3]: > 400 µM
Compound: CC1OC(OCC2OC(Oc3c(-c4ccc(O)cc4)oc4cc(O)cc(O)c4c3=O)C(O)C(O)C2O)C(O)C(O)C1O (centres unmarked) [Kaempferol-3-O-robinobioside]

IC50 [2, 9]: > 400 µM
IC50 [3]: > 400 µM
Compound: CC1OC(OCC2OC(Oc3c(-c4ccc(O)cc4)oc4cc(O)cc(O)c4c3=O)C(O)C(O)C2O)C(O)C(O)C1O (centres unmarked) [Nicotiflorine]

IC50 [2, 9]: > 400 µM
IC50 [3]: > 400 µM
Compound: CC1OC(OCC2OC(Oc3c(-c4ccc(O)cc4)oc4cc(OC5OC(C)C(O)C(O)C5O)cc(O)c4c3=O)C(O)C(O)C2O)C(O)C(O)C1O (centres unmarked) [Robinin, kaempferol 3-O-robinoside-7-O-rhamnoside]
